Source: ChEMBL document CHEMBL1128852, “Butyrophenone analogues: Synthesis of 2-methyl-3-ethyl-5-aminoethyl-4,5,6,7-tetrahydroindol-4-ones, and their affinities for d1, d2 and 5-ht2a receptors” (Bioorg Med Chem Lett, 1995)

Legend:
[1] = molecular target: 5-hydroxytryptamine receptor 2A (Rattus norvegicus, UniProt P14842); assay: Inhibition constant for in vitro inhibition of [3H]ketanserin binding to rat frontal cortex membranes 5-hydroxytryptamine 2A receptor; format: cell membranes, Membrane
D(2) dopamine receptor = D(2) dopamine receptor (Rattus norvegicus, UniProt P61169); assay: Inhibition constant for in vitro inhibition of [3H]spiperone binding to striatal membranes Dopamine receptor D2
Sequence of D(2) dopamine receptor (P61169 whole entry): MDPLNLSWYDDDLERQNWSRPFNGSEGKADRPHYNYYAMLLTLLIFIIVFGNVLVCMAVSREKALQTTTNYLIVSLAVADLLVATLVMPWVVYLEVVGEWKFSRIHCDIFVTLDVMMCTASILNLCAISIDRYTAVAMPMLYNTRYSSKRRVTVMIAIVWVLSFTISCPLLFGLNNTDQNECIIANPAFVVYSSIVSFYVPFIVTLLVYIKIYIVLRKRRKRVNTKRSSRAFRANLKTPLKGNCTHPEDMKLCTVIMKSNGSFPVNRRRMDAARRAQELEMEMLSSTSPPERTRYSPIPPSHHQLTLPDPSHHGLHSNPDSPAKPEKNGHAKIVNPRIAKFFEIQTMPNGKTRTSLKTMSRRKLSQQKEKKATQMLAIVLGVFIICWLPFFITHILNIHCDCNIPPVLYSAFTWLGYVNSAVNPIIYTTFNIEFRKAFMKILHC

D(1A) dopamine receptor = D(1A) dopamine receptor (Rattus norvegicus, UniProt P18901); assay: Inhibition constant for in vitro inhibition of [3H]-SCH- 23390 binding to striatal membranes Dopamine receptor D1; set-up: species or system Striatum, Membrane
Sequence of D(1A) dopamine receptor (P18901 whole entry): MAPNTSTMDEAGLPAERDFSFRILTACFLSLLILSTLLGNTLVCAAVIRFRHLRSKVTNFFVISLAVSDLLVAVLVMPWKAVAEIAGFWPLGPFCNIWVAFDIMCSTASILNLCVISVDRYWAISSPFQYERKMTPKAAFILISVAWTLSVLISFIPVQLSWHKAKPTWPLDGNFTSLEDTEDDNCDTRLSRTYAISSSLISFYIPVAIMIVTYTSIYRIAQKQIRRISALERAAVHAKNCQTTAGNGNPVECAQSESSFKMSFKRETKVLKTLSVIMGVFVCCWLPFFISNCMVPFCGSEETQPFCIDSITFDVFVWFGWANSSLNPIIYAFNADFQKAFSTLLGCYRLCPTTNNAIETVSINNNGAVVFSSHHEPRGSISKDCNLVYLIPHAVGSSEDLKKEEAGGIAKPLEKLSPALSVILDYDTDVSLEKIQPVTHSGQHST

Rattus norvegicus [2] = organism: Rattus norvegicus; assay: (§1) Competitive antagonism against serotonin-induced contractions in rat aorta ring stripped of endothelium; format: functional; settings: read-out: pA2 (converted)
Rattus norvegicus [3] = organism: Rattus norvegicus; assay: as §1; settings: read-out: pA2 (converted)

Sequence of 5-hydroxytryptamine receptor 2A (P14842 whole entry): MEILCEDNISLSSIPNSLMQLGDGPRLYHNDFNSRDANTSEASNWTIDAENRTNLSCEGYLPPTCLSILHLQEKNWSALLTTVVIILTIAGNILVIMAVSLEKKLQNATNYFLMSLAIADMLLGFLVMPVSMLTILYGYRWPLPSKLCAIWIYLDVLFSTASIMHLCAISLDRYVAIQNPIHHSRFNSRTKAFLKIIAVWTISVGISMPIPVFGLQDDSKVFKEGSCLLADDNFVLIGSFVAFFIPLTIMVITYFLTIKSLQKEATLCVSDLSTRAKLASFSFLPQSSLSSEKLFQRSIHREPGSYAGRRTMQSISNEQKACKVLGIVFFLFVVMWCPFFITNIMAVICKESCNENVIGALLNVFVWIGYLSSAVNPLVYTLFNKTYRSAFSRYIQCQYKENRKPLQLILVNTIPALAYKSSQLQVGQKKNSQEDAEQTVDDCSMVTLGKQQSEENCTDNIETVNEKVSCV

Row | Ki [1] [nM] | Ki (D(2) dopamine receptor) [nM] | Ki (D(1A) dopamine receptor) [nM] | Structure (SMILES) | Kb (Rattus norvegicus [2]) [nM] | Kb (Rattus norvegicus [3]) [nM]
1 | 91.2 | 28.2 | 1170 | CCc1c(C)[nH]c2c1C(=O)C(CCN1CCN(c3ccccc3OC)CC1)CC2 (centres undefined) | 31.6 | –
2 | 912 | 589 | 2140 | CCc1c(C)[nH]c2c1C(=O)C(CCN1CCOCC1)CC2 (centres undefined) | – | 105
3 | – | – | 1580 | CCc1c(C)[nH]c2c1C(=O)C(CN1CCOCC1)CC2 (centres undefined) [MOLINDONE] | – | –
